Source: ChEMBL document CHEMBL1145437, “Synthesis and biological evaluation of N-acetyl-beta-aryl-1,2-didehydroethylamines as new HIV-1 RT inhibitors in vitro” (Bioorg Med Chem Lett, 2007)
The source made the active and inactive calls. The rule behind the calls is not given here.

How the values were obtained:
[1] = test system: Human immunodeficiency virus 1; experiment: Inhibition of HIV1 reverse transcriptase at 200 ug/mL
[2] = Cytotoxicity in human C8166 cells; format: cell-based
[3] = test system: Human immunodeficiency virus 1; experiment: Antiviral activity against HIV1 assessed as syncytium reduction; format: functional, organism-based
[4] = Therapeutic index, Ratio of CC50 for human C8166 cells to EC50 for HIV1; format: cell-based; conditions: read-out: TI
[5] = Inhibition of HIV1 reverse transcriptase; parameters: species or system Human immunodeficiency virus 1
[6] = test system: Human immunodeficiency virus 1; experiment: Inhibition of HIV1 reverse transcriptase at 20 ug/mL

CC(=O)N/C=C/c1ccco1
Activity [1]: inactive

CC(=O)N/C=C/c1cccc(Cl)c1
inhibition [1]: 10.7%

COc1ccc(/C=C/NC(C)=O)cc1
Activity [1]: inactive

COc1cc(OC)c(OC)cc1/C=C/NC(C)=O
Activity [1]: inactive

CC(=O)N/C=C/c1ccc(Br)cc1
Activity [1]: inactive

O=[N+]([O-])/C=C/c1ccc(Cl)cc1
inhibition [1]: 19.8%

CC(=O)N/C=C/c1ccc(C)cc1
inhibition [1]: 16.6%

CC(=O)N/C=C/c1ccccc1F
inhibition [1]: 36.2%
CC50 [2]: 341 µM
EC50 [3]: 383 µM
selectivity ratio [4]: < 1

COc1ccccc1/C=C/NC(C)=O
Activity [1]: inactive

COc1cc(OC)c(OC)cc1/C=C/[N+](=O)[O-]
inhibition [1]: 49.1%
IC50 [5]: > 837 µM
CC50 [2]: 4.7 µM

COc1ccc(/C=C/NC(C)=O)c(OC)c1
Activity [1]: inactive

O=C(O)P(=O)(O)O [FOSCARNET]
IC50 [5]: 1.3 µM
inhibition [6]: 96.5%

CC(=O)N/C=C/c1ccc(C(F)(F)F)cc1
Activity [1]: inactive

Cc1ccc(/C=C/[N+](=O)[O-])cc1
inhibition [1]: 36.9%
CC50 [2]: 15.2 µM

CC(=O)N/C=C/c1cccc2ccccc12
inhibition [1]: 26.5%

CC(=O)N/C=C/c1ccc2ccccc2c1
inhibition [1]: 30.1%
CC50 [2]: 154 µM
EC50 [3]: 49.7 µM
selectivity ratio [4]: 3.1

O=[N+]([O-])/C=C/c1ccc(F)cc1
inhibition [1]: 22.9%

Cc1cn([C@H]2C[C@H](N=[N+]=[N-])[C@@H](CO)O2)c(=O)[nH]c1=O [ZIDOVUDINE]
CC50 [2]: > 5090 µM
EC50 [3]: 0.0108 µM
selectivity ratio [4]: > 471000

O=[N+]([O-])/C=C/c1ccccc1Cl
inhibition [1]: 99.3%
IC50 [5]: 361 µM
CC50 [2]: 3 µM

COc1ccccc1/C=C/[N+](=O)[O-]
inhibition [1]: 99.7%
IC50 [5]: 225 µM
CC50 [2]: 5 µM

CC(=O)N/C=C/c1cccc(Br)c1
inhibition [1]: 41.5%
CC50 [2]: 134 µM
EC50 [3]: 89.3 µM
selectivity ratio [4]: 1.5

O=[N+]([O-])/C=C/c1ccccc1F
inhibition [1]: 95.4%
IC50 [5]: 365 µM
CC50 [2]: 2.8 µM

CC(=O)N(C)/C=C/c1ccccc1Br
inhibition [1]: 85.3%
IC50 [5]: 339 µM
CC50 [2]: > 787 µM
EC50 [3]: 59.8 µM
selectivity ratio [4]: > 13.2

CC(=O)N/C=C/c1ccc(F)cc1
Activity [1]: inactive

CC(=O)N/C=C/c1ccccc1C
inhibition [1]: 40.1%
CC50 [2]: 385 µM
EC50 [3]: 379 µM
selectivity ratio [4]: 1

O=[N+]([O-])/C=C/c1ccc(O)cc1
inhibition [1]: 96.4%
IC50 [5]: 553 µM
CC50 [2]: 15.8 µM

O=[N+]([O-])/C=C/c1ccccc1 [(2-NITROVINYL)BENZENE]
inhibition [1]: 99.7%
IC50 [5]: 87.9 µM
CC50 [2]: 13.6 µM

COc1ccc(/C=C/[N+](=O)[O-])c(OC)c1
inhibition [1]: 86.3%
IC50 [5]: 553 µM
CC50 [2]: 5.4 µM

CC(=O)N/C=C/c1ccccc1Br
inhibition [1]: 54.4%
CC50 [2]: 241 µM
EC50 [3]: 134 µM
selectivity ratio [4]: 1.8

O=[N+]([O-])/C=C/c1cccc(Br)c1
inhibition [1]: 13.4%

O=[N+]([O-])/C=C/c1ccccc1O
inhibition [1]: 98.2%
IC50 [5]: 540 µM
CC50 [2]: 18.8 µM

CC(=O)N/C=C/c1ccccc1
inhibition [1]: 22.2%

O=[N+]([O-])/C=C/c1ccco1
inhibition [1]: 91.8%
IC50 [5]: 465 µM
CC50 [2]: 28.9 µM

CC(=O)N/C=C/c1ccccc1O
inhibition [1]: 10.1%

CC(=O)N/C=C/c1ccc(Cl)cc1
Activity [1]: inactive

CC(=O)N(C)/C=C/c1ccccc1F
inhibition [1]: 61.7%
IC50 [5]: 477 µM
CC50 [2]: 667 µM
EC50 [3]: 119 µM
selectivity ratio [4]: 5.6

CC(=O)N/C=C/c1ccc(O)cc1
Activity [1]: inactive

CC(=O)N(C)/C=C/c1cccc(Br)c1
inhibition [1]: 45.4%
IC50 [5]: 838 µM
CC50 [2]: 409 µM
EC50 [3]: 128 µM
selectivity ratio [4]: 3.2

Cc1ccccc1/C=C/[N+](=O)[O-]
inhibition [1]: 99.2%
IC50 [5]: 261 µM
CC50 [2]: 7.4 µM

CC(=O)N(C)/C=C/c1ccccc1C
inhibition [1]: 79.8%
IC50 [5]: 487 µM
CC50 [2]: 609 µM
EC50 [3]: 116 µM
selectivity ratio [4]: 5.2

O=[N+]([O-])/C=C/c1cccc(Cl)c1
inhibition [1]: 49.8%
IC50 [5]: > 1090 µM
CC50 [2]: 4.6 µM

O=[N+]([O-])/C=C/c1cccc2ccccc12
inhibition [1]: 81.4%
IC50 [5]: 786 µM
CC50 [2]: 39.6 µM

O=[N+]([O-])/C=C/c1ccc2ccccc2c1
inhibition [1]: 58.8%
IC50 [5]: 935 µM
CC50 [2]: 40.6 µM

COc1ccc(/C=C/[N+](=O)[O-])cc1
inhibition [1]: 93.5%
IC50 [5]: 561 µM
CC50 [2]: 6.3 µM

O=[N+]([O-])/C=C/c1ccccc1Br
inhibition [1]: 95.7%
IC50 [5]: 202 µM
CC50 [2]: 0.57 µM

CC(=O)N/C=C/c1ccsc1
Activity [1]: inactive

O=[N+]([O-])/C=C/c1ccc(C(F)(F)F)cc1
inhibition [1]: 29.4%

CC(=O)N(C)/C=C/c1ccccc1Cl
inhibition [1]: 75.2%
IC50 [5]: 434 µM
CC50 [2]: 441 µM
EC50 [3]: 95.9 µM
selectivity ratio [4]: 4.6

CC(=O)N/C=C/c1cc(C)c(C)cc1C
inhibition [1]: 25.4%

CC(=O)N/C=C\c1ccsc1
inhibition [1]: 12%

O=[N+]([O-])/C=C/c1ccc(Br)cc1
inhibition [1]: 20.3%
CC50 [2]: 13.6 µM

Cc1cc(C)c(/C=C/[N+](=O)[O-])cc1C
inhibition [1]: 31.5%
CC50 [2]: 6.9 µM

CC(=O)N(C)/C=C/c1ccc(Br)cc1
Activity [1]: inactive

O=[N+]([O-])/C=C/c1ccsc1
inhibition [1]: 86.2%
IC50 [5]: 709 µM
CC50 [2]: 25.5 µM

CC(=O)N/C=C/c1ccccc1Cl
inhibition [1]: 34%
CC50 [2]: 297 µM
EC50 [3]: 124 µM
selectivity ratio [4]: 2.4
